# Results published in patent publication US20220226354A1, “GLP-1 SECRETION-PROMOTING COMPOSITION” (SUNTORY HOLDINGS LIMITED, priority 2019, published 2022).
# System: H716
# Assay: GLP-1 secretion amount of sweeteners, 24 hours (Experimental Example 1)
# Type: cell-based, human
# Conditions: H716, 24 hours after addition of stock solution, PBS as negative control (no sample)
# Protocol: RebA. RebB, RebM. RebN. RebD. RebC, MogV, and stevioside were examined for their GLP-1 secretion-promoting effects. Specifically, the amount of GLP-1 secretion was measured by the following procedures.
# Each test substance B, C, D, E, F, G, I, or J was dissolved in PBS (Thermo Fisher Scientific Inc.) (Cat. No. 14190250) to obtain a stock solution. The concentration of the stock solution is shown below:
# B (RebA); 5 mM, C (RebB); 1M, D (RebM); 2.5 mM, E (RebN); 1M, F (RebD); 2.5 mM, G (RebC); 2.5 mM, I (MogV); 1M, J(stevioside); 1M
# H716 (ATCC) (Cat. No. ATCC®, CCL-251) was cultured in RPMI 1640 (10% FBS (Thermo Fisher Scientific Inc.) (Cat. No. 10439024), 1 mM Sodium Pyruvate) in an incubator at 37° C., 5% CO2.
# The preculture was performed for 2 weeks, and the cells were sufficiently recovered, and then cell stocks were prepared.
# Cells were seeded in 96-well plates at 2×10^5 cells/90 μL (high) per well (N=4). At this time, the content of FBS in the medium was lowered to 0.5% to suppress cell proliferation.
# After 24 hours, the sample at the highest concentration (i.e., stock solution) was added by […] each.
# After further 24 hours, quantitation of GLP-1 was performed. Specific procedures were followed the user guide of Human GLP-1 (7-36 amide) Immunoassay kit (Cat. No. AL359) (Lot number 2361115) provided by PerkinElmer, Inc. PBS was used as a negative control (no sample).
row,Compound,amount of GLP-1 secretion compared with no sample
1,"C=C1C[C@@]23CC[C@H]4[C@@](C)(CCC[C@@]4(C)C(=O)O[C@@H]4O[C@H](CO)[C@@H](O)[C@H](O)[C@H]4O)[C@@H]2CC[C@]1(O[C@@H]1O[C@H](CO)[C@@H](O)[C@H](O[C@@H]2O[C@H](CO)[C@@H](O)[C@H](O)[C@H]2O)[C@H]1O[C@@H]1O[C@H](CO)[C@@H](O)[C@H](O)[C@H]1O)C3 [RebA, Rebaudioside A]",significantly larger amounts of GLP-1 secretion than no sample
2,"C[C@H](CC[C@@H](O[C@@H]1O[C@H](CO[C@@H]2O[C@H](CO)[C@@H](O)[C@H](O)[C@H]2O)[C@@H](O)[C@H](O)[C@H]1O[C@@H]1O[C@H](CO)[C@@H](O)[C@H](O)[C@H]1O)C(C)(C)O)[C@H]1CC[C@@]2(C)[C@@H]3CC=C4[C@@H](CC[C@H](O[C@@H]5O[C@H](CO[C@@H]6O[C@H](CO)[C@@H](O)[C@H](O)[C@H]6O)[C@@H](O)[C@H](O)[C@H]5O)C4(C)C)[C@]3(C)[C@H](O)C[C@]12C [MogV, mogroside V]",significantly larger amounts of GLP-1 secretion than no sample
3,"C=C1C[C@@]23CC[C@H]4[C@@](C)(CCC[C@@]4(C)C(=O)O[C@@H]4O[C@H](CO)[C@@H](O)[C@H](O)[C@H]4O)[C@@H]2CC[C@]1(O[C@@H]1O[C@H](CO)[C@@H](O)[C@H](O)[C@H]1O[C@@H]1O[C@H](CO)[C@@H](O)[C@H](O)[C@H]1O)C3 [stevioside, Stevioside]",significantly larger amounts of GLP-1 secretion than no sample
4,rebaudioside B [RebB],significantly larger amounts of GLP-1 secretion than no sample
5,rebaudioside C [RebC],significantly larger amounts of GLP-1 secretion than no sample

# System: not listed separately
# Assay: Dissolution of sample during sample preparation (Experimental Example 2)
# Type: physicochemical
# Conditions: final concentration of 1.5 mM (#24), 1% DMSO-containing PBS
# Protocol: To 20 mg of RebC, 21 μL of DMSO (manufactured by FUJIFILM Wako Pure Chemical Corporation, model number: 037-24053) was added. The mixture was then stirred by vortex and allowed to stand for several hours to obtain a stock solution having a RebC concentration of 1,000 mM. The obtained stock solution and PBS were used to prepare a 10 mM solution.
# The 10 mM solution was diluted as needed with 1% DMSO-containing PBS to obtain Sample G-1 mM to Sample G-10 mM. The concentrations of RebC are described in Table 1.
row,dissolution of sample,Compound
1,not able to be dissolved,rebaudioside C [RebC]
